This is an account of results in paper PMC4925217 (FEBS letters, 2016).

The target in assay [1] is T1, ScRR (ScRR1 with ScRR2•ScRR4) (Saccharomyces cerevisiae, UniProt P21524).
T1 sequence (P21524 1-888): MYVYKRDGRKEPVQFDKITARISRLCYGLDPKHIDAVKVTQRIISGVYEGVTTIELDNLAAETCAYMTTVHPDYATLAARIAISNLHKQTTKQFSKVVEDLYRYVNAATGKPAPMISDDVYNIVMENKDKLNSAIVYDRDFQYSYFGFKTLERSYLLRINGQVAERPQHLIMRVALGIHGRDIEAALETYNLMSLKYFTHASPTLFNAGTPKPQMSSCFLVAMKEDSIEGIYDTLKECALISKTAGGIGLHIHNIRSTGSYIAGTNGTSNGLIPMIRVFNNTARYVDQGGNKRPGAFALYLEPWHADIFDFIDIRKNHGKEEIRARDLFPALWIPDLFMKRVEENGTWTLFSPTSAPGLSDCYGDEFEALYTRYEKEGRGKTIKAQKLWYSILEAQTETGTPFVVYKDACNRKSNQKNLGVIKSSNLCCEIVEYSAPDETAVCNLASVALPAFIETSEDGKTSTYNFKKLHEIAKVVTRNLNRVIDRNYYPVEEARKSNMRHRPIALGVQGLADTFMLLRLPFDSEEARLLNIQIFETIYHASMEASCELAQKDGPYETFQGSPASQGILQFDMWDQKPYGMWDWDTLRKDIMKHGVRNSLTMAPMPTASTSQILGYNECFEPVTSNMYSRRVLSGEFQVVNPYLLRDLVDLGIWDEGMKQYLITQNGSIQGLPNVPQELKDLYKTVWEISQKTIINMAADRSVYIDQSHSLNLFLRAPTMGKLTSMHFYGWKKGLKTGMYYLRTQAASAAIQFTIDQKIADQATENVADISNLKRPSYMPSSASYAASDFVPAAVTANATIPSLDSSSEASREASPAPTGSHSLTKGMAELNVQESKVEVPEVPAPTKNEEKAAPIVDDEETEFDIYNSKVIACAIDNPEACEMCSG
T1 sequence (P09938 1-399 partner): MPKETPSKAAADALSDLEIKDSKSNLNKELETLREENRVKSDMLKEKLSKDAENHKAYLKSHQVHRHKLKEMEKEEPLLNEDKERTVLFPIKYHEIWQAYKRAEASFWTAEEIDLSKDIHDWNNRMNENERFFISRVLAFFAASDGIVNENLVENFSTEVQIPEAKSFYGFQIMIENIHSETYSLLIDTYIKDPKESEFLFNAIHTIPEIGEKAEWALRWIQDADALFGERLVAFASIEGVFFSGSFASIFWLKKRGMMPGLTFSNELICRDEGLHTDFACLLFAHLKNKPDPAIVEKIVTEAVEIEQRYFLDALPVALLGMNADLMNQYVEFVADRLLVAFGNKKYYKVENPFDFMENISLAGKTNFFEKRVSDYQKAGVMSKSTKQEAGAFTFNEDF
T1 sequence (P49723 1-345 partner): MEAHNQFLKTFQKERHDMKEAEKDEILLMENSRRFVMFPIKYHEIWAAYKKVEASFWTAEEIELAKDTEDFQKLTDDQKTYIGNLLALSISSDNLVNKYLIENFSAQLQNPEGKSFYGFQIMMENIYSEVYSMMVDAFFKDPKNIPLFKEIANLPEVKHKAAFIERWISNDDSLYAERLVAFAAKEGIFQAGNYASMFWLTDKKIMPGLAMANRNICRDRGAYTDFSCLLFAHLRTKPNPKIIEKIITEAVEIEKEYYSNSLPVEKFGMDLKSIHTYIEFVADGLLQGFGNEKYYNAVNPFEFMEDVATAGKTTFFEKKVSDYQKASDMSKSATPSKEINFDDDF
Kind of assay: NDP reduction assay. Conditions: read-out: % inhibition at 20 μM. Format: biochemical.

The target in assay [2] is T1, ScRR (ScRR1 with ScRR2•ScRR4). Kind of assay: [3H]CDP reduction assay, borate chromatography, isotope counting. As to conditions: ATP effector, 0.05 to 1 mM CDP (hexamer); labelled compound; C-site. In kind it is biochemical.

As to `Nc1ncnc2c1ncn2[C@H]1C[C@H](O)[C@@H](COP(=O)(O)OP(=O)(O)OP(=O)(O)O)O1` [dATP], in assay [1], the inhibition at 20 µM is roughly 50%.
For `Nc1ccn([C@@H]2O[C@H](COP(=O)(O)OP(=O)(O)O)[C@@H](O)[C@H]2O)c(=O)n1` [CDP], the “[3H]CDP reduction assay, borate chromatography, isotope counting” value in assay [2] is “When ATP/CDP was used as the effector-substrate pair, [^3H]CDP concentrations were varied”.

Broadly, the inhibition is how much of the control response was suppressed.
